Test results as given in ChEMBL document CHEMBL1201862, “PubChem BioAssay data set” (2004).
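Exposure lasted 48 hours, with cells grown in 96-well plates and compounds tested at five concentrations. GI50 marks 50% less growth.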 Activity calls are given as the source filed them. Cut-off read from the data, not from the text of the source: active = GI50 up to about 1.1 µM and inactive = higher.

Key:
Assay in all cases: NCI-60 cell line screen, 48 h
CCRF-CEM = tested on: CCRF-CEM
HCT-116 = tested on: HCT-116
PC-3 = tested on: PC-3
COLO 205 = tested on: COLO 205
NCI-H226 = tested on: NCI-H226
KM12 = tested on: KM12
SN12C = tested on: SN12C
RXF 393 = tested on: RXF 393
NCI-H522 = tested on: NCI-H522
MDA-MB-435 = tested on: MDA-MB-435
K562 = tested on: K562
SW-620 = tested on: SW-620
SK-MEL-28 = tested on: SK-MEL-28
A498 = tested on: A498
SF-539 = tested on: SF-539
HCC 2998 = tested on: HCC 2998
HOP-62 = tested on: HOP-62
A549 = tested on: A549
LOX IMVI = tested on: LOX IMVI
HCT-15 = tested on: HCT-15
NCI-H23 = tested on: NCI-H23
UACC-257 = tested on: UACC-257
SF-295 = tested on: SF-295
OVCAR-8 = tested on: OVCAR-8
SK-MEL-2 = tested on: SK-MEL-2
Hs-578T = tested on: Hs-578T
SK-OV-3 = tested on: SK-OV-3
EKVX = tested on: EKVX
NCI/ADR-RES = tested on: NCI/ADR-RES
SNB-19 = tested on: SNB-19
Malme-3M = tested on: Malme-3M
CAKI-1 = tested on: CAKI-1
MOLT-4 = tested on: MOLT-4
IGROV-1 = tested on: IGROV-1
TK-10 = tested on: TK-10
OVCAR-3 = tested on: OVCAR-3
SK-MEL-5 = tested on: SK-MEL-5
HT-29 = tested on: HT-29
OVCAR-5 = tested on: OVCAR-5
NCI-H460 = tested on: NCI-H460
UO-31 = tested on: UO-31
786-0 = tested on: 786-0
MDA-N = tested on: MDA-N
HL-60 = tested on: HL-60
ACHN = tested on: ACHN
M14 = tested on: M14
UACC-62 = tested on: UACC-62
T47D = tested on: T47D
DU-145 = tested on: DU-145
U-251 = tested on: U-251
SR = tested on: SR
HOP-92 = tested on: HOP-92
RPMI-8226 = tested on: RPMI-8226
OVCAR-4 = tested on: OVCAR-4
SF-268 = tested on: SF-268
MDA-MB-231 = tested on: MDA-MB-231
SNB-75 = tested on: SNB-75

## O=c1ccn2n1CCCCC2
CCRF-CEM
  GI50: > 100 µM (inactive)
HCT-116
  GI50: > 100 µM (inactive)
PC-3
  GI50: > 100 µM (inactive)
COLO 205
  GI50: > 100 µM (inactive)
NCI-H226
  GI50: > 100 µM (inactive)
KM12
  GI50: > 100 µM (inactive)
SN12C
  GI50: > 100 µM (inactive)
RXF 393
  GI50: > 100 µM (inactive)
NCI-H522
  GI50: > 100 µM (inactive)
MDA-MB-435
  GI50: > 100 µM (inactive)
K562
  GI50: > 100 µM (inactive)
SW-620
  GI50: > 100 µM (inactive)
SK-MEL-28
  GI50: > 100 µM (inactive)
A498
  GI50: > 100 µM (inactive)
SF-539
  GI50: > 100 µM (inactive)
HCC 2998
  GI50: > 100 µM (inactive)
HOP-62
  GI50: > 100 µM (inactive)
A549
  GI50: > 100 µM (inactive)
LOX IMVI
  GI50: > 100 µM (inactive)
HCT-15
  GI50: > 100 µM
NCI-H23
  GI50: > 100 µM (inactive)
UACC-257
  GI50: > 100 µM (inactive)
SF-295
  GI50: > 100 µM (inactive)
OVCAR-8
  GI50: > 100 µM (inactive)
SK-MEL-2
  GI50: > 100 µM (inactive)
Hs-578T
  GI50: > 100 µM (inactive)
SK-OV-3
  GI50: > 100 µM (inactive)
EKVX
  GI50: > 100 µM (inactive)
NCI/ADR-RES
  GI50: > 100 µM (inactive)
SNB-19
  GI50: > 100 µM (inactive)
Malme-3M
  GI50: > 100 µM (inactive)
CAKI-1
  GI50: > 100 µM (inactive)
MOLT-4
  GI50: > 100 µM (inactive)
IGROV-1
  GI50: > 100 µM (inactive)
TK-10
  GI50: > 100 µM (inactive)
OVCAR-3
  GI50: > 100 µM (inactive)
SK-MEL-5
  GI50: > 100 µM (inactive)
HT-29
  GI50: > 100 µM (inactive)
OVCAR-5
  GI50: > 100 µM (inactive)
NCI-H460
  GI50: > 100 µM (inactive)
UO-31
  GI50: > 100 µM (inactive)
786-0
  GI50: > 100 µM (inactive)
MDA-N
  GI50: > 100 µM (inactive)
HL-60
  GI50: > 100 µM (inactive)
ACHN
  GI50: > 100 µM (inactive)
M14
  GI50: > 100 µM (inactive)
UACC-62
  GI50: > 100 µM (inactive)
T47D
  GI50: 58.2 µM (inactive)
DU-145
  GI50: > 100 µM (inactive)
U-251
  GI50: > 100 µM (inactive)
SR
  GI50: > 100 µM (inactive)
HOP-92
  GI50: > 100 µM (inactive)
RPMI-8226
  GI50: > 100 µM (inactive)
OVCAR-4
  GI50: > 100 µM (inactive)
SF-268
  GI50: > 100 µM (inactive)
MDA-MB-231
  GI50: > 100 µM (inactive)

## O=[N+]([O-])c1ccc(S(=O)(=O)n2c3ccc(Br)cc3c3nc4ccccc4nc32)cc1
CCRF-CEM
  GI50: 20.7 µM (inactive)
HCT-116
  GI50: > 100 µM (inactive)
PC-3
  GI50: > 100 µM (inactive)
COLO 205
  GI50: > 100 µM (inactive)
NCI-H226
  GI50: 24 µM (inactive)
KM12
  GI50: > 100 µM (inactive)
SN12C
  GI50: > 100 µM (inactive)
RXF 393
  GI50: > 100 µM (inactive)
NCI-H522
  GI50: > 100 µM (inactive)
MDA-MB-435
  GI50: > 100 µM (inactive)
K562
  GI50: 70.8 µM (inactive)
SW-620
  GI50: > 100 µM (inactive)
SK-MEL-28
  GI50: > 100 µM (inactive)
A498
  GI50: > 100 µM (inactive)
HCC 2998
  GI50: > 100 µM (inactive)
HOP-62
  GI50: > 100 µM (inactive)
A549
  GI50: > 100 µM (inactive)
LOX IMVI
  GI50: > 100 µM (inactive)
HCT-15
  GI50: > 100 µM
SNB-75
  GI50: 77.6 µM (inactive)
NCI-H23
  GI50: > 100 µM (inactive)
UACC-257
  GI50: > 100 µM (inactive)
SF-295
  GI50: > 100 µM (inactive)
OVCAR-8
  GI50: > 100 µM (inactive)
SK-MEL-2
  GI50: > 100 µM (inactive)
Hs-578T
  GI50: 53.6 µM (inactive)
NCI/ADR-RES
  GI50: > 100 µM (inactive)
SNB-19
  GI50: > 100 µM (inactive)
CAKI-1
  GI50: > 100 µM (inactive)
MOLT-4
  GI50: > 100 µM (inactive)
IGROV-1
  GI50: > 100 µM (inactive)
TK-10
  GI50: > 100 µM (inactive)
OVCAR-3
  GI50: > 100 µM (inactive)
SK-MEL-5
  GI50: > 100 µM (inactive)
HT-29
  GI50: > 100 µM (inactive)
OVCAR-5
  GI50: > 100 µM (inactive)
NCI-H460
  GI50: > 100 µM (inactive)
UO-31
  GI50: > 100 µM (inactive)
786-0
  GI50: > 100 µM (inactive)
MDA-N
  GI50: > 100 µM (inactive)
ACHN
  GI50: > 100 µM (inactive)
M14
  GI50: > 100 µM (inactive)
UACC-62
  GI50: > 100 µM (inactive)
T47D
  GI50: > 100 µM (inactive)
DU-145
  GI50: > 100 µM (inactive)
U-251
  GI50: > 100 µM (inactive)
SR
  GI50: > 100 µM (inactive)
HOP-92
  GI50: > 100 µM (inactive)
RPMI-8226
  GI50: > 100 µM (inactive)
OVCAR-4
  GI50: > 100 µM (inactive)
SF-268
  GI50: > 100 µM (inactive)
MDA-MB-231
  GI50: > 100 µM (inactive)
